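Dose response: 5 concentrations. Exposure: 48 h. Format: 96-well plates. Endpoint: linear interpolation; highest concentration if not reached. GI50 is the concentration that inhibits growth by half. TGI: concentration producing complete growth inhibition.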
Columns and labels:
Assay in all cases: NCI tumour cell line growth inhibition, 48 h
[1] = test system: 786-0 renal
[2] = test system: A498 renal
[3] = test system: A549 NSCLC
[4] = test system: ACHN renal
[5] = test system: CAKI-1 renal
[6] = test system: CCRF-CEM leukemia
[7] = test system: COLO 205 colon
[8] = test system: DU-145 prostate
[9] = test system: EKVX NSCLC
[10] = test system: HCC-2998 colon
[11] = test system: HCT-116 colon
[12] = test system: HCT-15 colon
[13] = test system: HL-60(TB) leukemia
[14] = test system: HOP-62 NSCLC
[15] = test system: HOP-92 NSCLC
[16] = test system: HS 578T breast
[17] = test system: IGROV1 ovarian
[18] = test system: K-562 leukemia
[19] = test system: KM12 colon
[20] = test system: LOX IMVI melanoma
[21] = test system: M14 melanoma
[22] = test system: MALME-3M melanoma
[23] = test system: MCF7 breast
[24] = test system: MDA-MB-231 breast
[25] = test system: MDA-MB-435
[26] = test system: MOLT-4 leukemia
[27] = test system: NCI-H226 lung
[28] = test system: NCI-H23 lung
[29] = test system: NCI-H460 lung
[30] = test system: NCI/ADR-RES ovarian
[31] = test system: OVCAR-3 ovarian
[32] = test system: OVCAR-4 ovarian
[33] = test system: OVCAR-5 ovarian
[34] = test system: OVCAR-8 ovarian
[35] = test system: PC-3 prostate
[36] = test system: RPMI-8226 leukemia
[37] = test system: RXF 393 renal
[38] = test system: SF-268 CNS
[39] = test system: SF-295 CNS
[40] = test system: SF-539 CNS
[41] = test system: SK-MEL-28 melanoma
[42] = test system: SK-MEL-5 melanoma
[43] = test system: SK-OV-3 ovarian
[44] = test system: SN12C renal
[45] = test system: SNB-19 CNS
[46] = test system: SNB-75 CNS
[47] = test system: SR leukemia
[48] = test system: SW-620 colon
[49] = test system: T-47D breast
[50] = test system: U251 CNS
[51] = test system: UACC-257 melanoma
[52] = test system: UACC-62 melanoma
[53] = test system: UO-31 renal
[54] = test system: BT-549 breast
[55] = test system: HT29 colon
[56] = test system: NCI-H522 lung
[57] = test system: SK-MEL-2 melanoma
[58] = test system: TK-10 renal

Structure (SMILES): CCCCOC(=O)/C=C\C(=O)NC(N)=O
- GI50 [1]: 20.1 µM
- TGI [1]: 53.1 µM
- GI50 [2]: 29.3 µM
- TGI [2]: 78.1 µM
- GI50 [3]: 34.3 µM
- TGI [3]: > 100 µM
- GI50 [4]: 15.3 µM
- TGI [4]: 30.3 µM
- GI50 [5]: 2.53 µM
- TGI [5]: 9.23 µM
- GI50 [6]: 15.9 µM
- TGI [6]: 35.8 µM
- GI50 [7]: 14 µM
- TGI [7]: 29.1 µM
- GI50 [8]: 10.1 µM
- TGI [8]: > 100 µM
- GI50 [9]: 23.1 µM
- TGI [9]: 56.9 µM
- GI50 [10]: 19.8 µM
- TGI [10]: 35.4 µM
- GI50 [11]: 13.4 µM
- TGI [11]: 27.8 µM
- GI50 [12]: 15.6 µM
- TGI [12]: 38.3 µM
- GI50 [13]: 22.8 µM
- TGI [13]: 49.9 µM
- GI50 [14]: 32.5 µM
- TGI [14]: > 100 µM
- GI50 [15]: 10.9 µM
- TGI [15]: 24.4 µM
- GI50 [16]: 23.5 µM
- TGI [16]: > 100 µM
- GI50 [17]: 20.4 µM
- TGI [17]: 54.3 µM
- GI50 [18]: 31.3 µM
- TGI [18]: > 100 µM
- GI50 [19]: 25 µM
- TGI [19]: 66.9 µM
- GI50 [20]: 17.4 µM
- TGI [20]: 32.4 µM
- GI50 [21]: 17.2 µM
- TGI [21]: 36.6 µM
- GI50 [22]: 14.7 µM
- TGI [22]: 34.5 µM
- GI50 [23]: 13 µM
- TGI [23]: 76.7 µM
- GI50 [24]: 17.9 µM
- TGI [24]: 42.6 µM
- GI50 [25]: 24.7 µM
- TGI [25]: 85 µM
- GI50 [26]: 38.3 µM
- TGI [26]: > 100 µM
- GI50 [27]: 20 µM
- TGI [27]: 49.2 µM
- GI50 [28]: 25.1 µM
- TGI [28]: 72.5 µM
- GI50 [29]: 31.9 µM
- TGI [29]: > 100 µM
- GI50 [30]: 27 µM
- TGI [30]: 74.3 µM
- GI50 [31]: 13 µM
- TGI [31]: 26.2 µM
- GI50 [32]: 17.1 µM
- TGI [32]: 43.8 µM
- GI50 [33]: 25.6 µM
- TGI [33]: 81.7 µM
- GI50 [34]: 29.7 µM
- TGI [34]: > 100 µM
- GI50 [35]: 25 µM
- TGI [35]: 69.7 µM
- GI50 [36]: 7.88 µM
- TGI [36]: 28.9 µM
- GI50 [37]: 12.7 µM
- TGI [37]: 27.1 µM
- GI50 [38]: 22.1 µM
- TGI [38]: 61 µM
- GI50 [39]: 47.2 µM
- TGI [39]: > 100 µM
- GI50 [40]: 24.6 µM
- TGI [40]: 70 µM
- GI50 [41]: 19.1 µM
- TGI [41]: 42.5 µM
- GI50 [42]: 24.3 µM
- TGI [42]: 71.4 µM
- GI50 [43]: 44.9 µM
- TGI [43]: > 100 µM
- GI50 [44]: 41.5 µM
- TGI [44]: > 100 µM
- GI50 [45]: 41.2 µM
- TGI [45]: > 100 µM
- GI50 [46]: 18 µM
- TGI [46]: 74.9 µM
- GI50 [47]: 35.7 µM
- TGI [47]: > 100 µM
- GI50 [48]: 14.5 µM
- TGI [48]: 32.3 µM
- GI50 [49]: 14.5 µM
- TGI [49]: 95.5 µM
- GI50 [50]: 26.2 µM
- TGI [50]: 89.3 µM
- GI50 [51]: 21 µM
- TGI [51]: 56.7 µM
- GI50 [52]: 15.3 µM
- TGI [52]: 30.1 µM
- GI50 [53]: 13.4 µM
- TGI [53]: 31 µM

Structure (SMILES): Fc1ccc(Nc2ncc(-c3cc(F)c(Cl)cc3Cl)s2)cc1Cl
- GI50 [2]: 11.2 µM
- TGI [2]: 29.1 µM
- GI50 [3]: 14.9 µM
- TGI [3]: 31.3 µM
- GI50 [4]: 19.3 µM
- TGI [4]: 51.5 µM
- GI50 [54]: 20.2 µM
- TGI [54]: 45.1 µM
- GI50 [5]: 8.2 µM
- TGI [5]: 22 µM
- GI50 [7]: 28.5 µM
- TGI [7]: > 100 µM
- GI50 [8]: 9.01 µM
- TGI [8]: 30.8 µM
- GI50 [9]: 16.3 µM
- TGI [9]: 31.3 µM
- GI50 [11]: 2.82 µM
- TGI [11]: 7.2 µM
- GI50 [12]: 3.44 µM
- TGI [12]: > 100 µM
- GI50 [13]: 18.1 µM
- TGI [13]: 36.2 µM
- GI50 [14]: 9.43 µM
- TGI [14]: 21.8 µM
- GI50 [15]: 1.47 µM
- TGI [15]: 13.3 µM
- GI50 [16]: 11.5 µM
- TGI [16]: 36.4 µM
- GI50 [55]: 24.3 µM
- TGI [55]: > 100 µM
- GI50 [17]: 26.2 µM
- TGI [17]: > 100 µM
- GI50 [18]: 3.46 µM
- TGI [18]: 15.5 µM
- GI50 [19]: 2.69 µM
- TGI [19]: 13.3 µM
- GI50 [20]: 9.08 µM
- TGI [20]: 96 µM
- GI50 [22]: 14 µM
- TGI [22]: 31.2 µM
- TGI [23]: 2.48 µM
- GI50 [24]: 2.15 µM
- TGI [24]: 6.87 µM
- GI50 [25]: 15.4 µM
- TGI [25]: 32.5 µM
- GI50 [26]: 5.46 µM
- TGI [26]: 18.6 µM
- GI50 [27]: 7.92 µM
- TGI [27]: > 100 µM
- GI50 [28]: 14.1 µM
- TGI [28]: 28.1 µM
- GI50 [29]: 2.98 µM
- TGI [29]: 9.61 µM
- GI50 [56]: 20.8 µM
- TGI [56]: 44.3 µM
- GI50 [30]: 17.7 µM
- TGI [30]: 32.5 µM
- GI50 [31]: 10.5 µM
- TGI [31]: 23.9 µM
- GI50 [32]: 26.5 µM
- TGI [32]: > 100 µM
- GI50 [33]: 15.8 µM
- TGI [33]: 30.5 µM
- GI50 [34]: 20.1 µM
- TGI [34]: 64.2 µM
- GI50 [35]: 14 µM
- TGI [35]: 27.7 µM
- GI50 [36]: 9.38 µM
- TGI [36]: 25.1 µM
- GI50 [37]: 6.67 µM
- TGI [37]: 24.3 µM
- GI50 [38]: 5.63 µM
- TGI [38]: 20.3 µM
- GI50 [39]: 15.9 µM
- TGI [39]: 31 µM
- GI50 [40]: 10.5 µM
- TGI [40]: 32.5 µM
- GI50 [57]: 22.8 µM
- TGI [57]: 57.9 µM
- GI50 [41]: 79.9 µM
- TGI [41]: > 100 µM
- GI50 [42]: 12.3 µM
- TGI [42]: 25.9 µM
- GI50 [43]: 90.8 µM
- TGI [43]: > 100 µM
- GI50 [44]: 3.91 µM
- TGI [44]: > 100 µM
- GI50 [45]: > 100 µM
- TGI [45]: > 100 µM
- GI50 [46]: 39.3 µM
- TGI [46]: > 100 µM
- GI50 [48]: 5.47 µM
- TGI [48]: 24.9 µM
- GI50 [49]: > 100 µM
- TGI [49]: > 100 µM
- GI50 [58]: 8.05 µM
- TGI [58]: 21.8 µM
- GI50 [50]: 6.09 µM
- TGI [50]: 23.7 µM
- GI50 [51]: 14.3 µM
- TGI [51]: 29.2 µM
- GI50 [52]: 8.41 µM
- TGI [52]: 26.5 µM
- GI50 [53]: 17.1 µM
- TGI [53]: 42.1 µM
